Test results: the CheMixHub drug solubility set

Assay: xn = mol fraction of the nth substance listed, in the solute-free solvent

CC(=O)Oc1cccc2c1C(=O)c1c(OC(C)=O)cc(C(=O)O)cc1C2=O + CC#N + CCO
solubility (g/100 g solution)
Conditions | 273.15 K | 278.15 K | 283.15 K | 288.15 K | 293.15 K | 298.15 K | 303.15 K | 308.15 K | 313.15 K
x2 = 0.1109 | 0.00681 | 0.00922 | 0.0124 | 0.0163 | 0.0211 | 0.0275 | 0.0344 | 0.0422 | 0.0532
x2 = 0.2191 | 0.0086 | 0.0114 | 0.0156 | 0.0201 | 0.0251 | 0.0316 | 0.0396 | 0.0497 | 0.0623
x2 = 0.3248 | 0.0151 | 0.02 | 0.0259 | 0.032 | 0.0393 | 0.0474 | 0.0557 | 0.0657 | 0.0756
x2 = 0.428 | 0.0245 | 0.0312 | 0.039 | 0.0468 | 0.0553 | 0.0655 | 0.0782 | 0.0921 | 0.108
x2 = 0.5288 | 0.0313 | 0.0399 | 0.0509 | 0.0631 | 0.0754 | 0.0896 | 0.105 | 0.121 | 0.139
x2 = 0.6273 | 0.0353 | 0.0455 | 0.0574 | 0.0703 | 0.0834 | 0.0991 | 0.114 | 0.13 | 0.148
x2 = 0.7236 | 0.0286 | 0.0372 | 0.048 | 0.0598 | 0.0714 | 0.0842 | 0.098 | 0.113 | 0.129
x2 = 0.8178 | 0.0226 | 0.029 | 0.0374 | 0.0457 | 0.0538 | 0.0633 | 0.0742 | 0.0857 | 0.101
x2 = 0.9099 | 0.0216 | 0.0259 | 0.0322 | 0.0392 | 0.0467 | 0.0549 | 0.0647 | 0.0747 | 0.0869

NCCS(=O)(=O)O + O + CC(O)CO
solubility (g/100 g solution)
Conditions | 298.15 K | 303.15 K | 308.15 K | 313.15 K | 318.15 K
x2 = 0.8085 | 0.283 | 0.373 | 0.413 | 0.484 | 0.694
x2 = 0.8636 | 0.605 | 0.646 | 0.75 | 0.914 | 1.26
x2 = 0.9079 | 0.929 | 1 | 1.36 | 1.64 | 2.12
x2 = 0.9441 | 1.72 | 2.03 | 2.51 | 3.03 | 3.67
x2 = 0.9744 | 3.42 | 4.2 | 5.01 | 5.6 | 6.88

NCCS(=O)(=O)O + O + OCCO
solubility (g/100 g solution)
Conditions | 298.15 K | 303.15 K | 308.15 K | 313.15 K | 318.15 K
x2 = 0.775 | 1.2 | 1.44 | 1.68 | 2.16 | 2.27
x2 = 0.8378 | 1.63 | 1.92 | 2.28 | 2.83 | 3.17
x2 = 0.8893 | 2.24 | 2.94 | 3.18 | 3.64 | 4.08
x2 = 0.9323 | 3.39 | 4.12 | 4.67 | 5.48 | 6.21
x2 = 0.9688 | 5.08 | 6.22 | 7.45 | 8.66 | 10.1

Cc1ccc2cc(Br)ccc2n1 + CC(C)O + O
solubility (g/100 g solution)
Conditions | 278.15 K | 283.15 K | 288.15 K | 293.15 K | 298.15 K | 303.15 K | 308.15 K | 313.15 K | 318.15 K | 323.15 K
x2 = 0.03225 | 0.0479 | 0.0553 | 0.0644 | 0.0741 | 0.0853 | 0.0974 | 0.113 | 0.129 | 0.148 | 0.169
x2 = 0.06974 | 0.141 | 0.161 | 0.185 | 0.211 | 0.241 | 0.273 | 0.312 | 0.356 | 0.403 | 0.457
x2 = 0.1139 | 0.263 | 0.301 | 0.346 | 0.393 | 0.446 | 0.505 | 0.576 | 0.655 | 0.74 | 0.837
x2 = 0.1666 | 0.372 | 0.427 | 0.492 | 0.56 | 0.637 | 0.723 | 0.826 | 0.94 | 1.06 | 1.2
x2 = 0.2307 | 0.427 | 0.503 | 0.586 | 0.671 | 0.769 | 0.881 | 0.997 | 1.15 | 1.31 | 1.5
x2 = 0.3103 | 0.482 | 0.567 | 0.673 | 0.787 | 0.904 | 1.04 | 1.19 | 1.37 | 1.57 | 1.79
x2 = 0.4117 | 0.539 | 0.642 | 0.767 | 0.896 | 1.04 | 1.2 | 1.39 | 1.59 | 1.81 | 2.06
x2 = 0.5454 | 0.596 | 0.7 | 0.856 | 1.03 | 1.2 | 1.4 | 1.63 | 1.89 | 2.17 | 2.48
x2 = 0.7297 | 0.657 | 0.815 | 0.972 | 1.16 | 1.33 | 1.56 | 1.81 | 2.1 | 2.4 | 2.78
